Assay [1] concerns 80S14 (p21-deficient) cells. The assay is described as follows: Cytotoxicity assay using isogenic cell lines: IC50 in 80S14 (p21-deficient) cells, SRB. It is filed as cell-based, human. In short, it runs like this: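 IC50 is the concentration halving proliferation relative to untreated controls, read from SRB absorbance (560 nm) after TCA fixation. Test agent dilutions (5 pM–50 μM or 170 pg/ml–10 μg/ml) were left on p21-deficient 80S14 cells (12,000/well, pre-incubated overnight) for 5 days at 37 °C.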

The next assay deals with LoVo Colon cell line. The assay is described as follows: Cytotoxicity assay using LoVo colon cell line, SRB. It is filed as cell-based. The note with it: read-out: Inhibition of LoVo. The procedure:
Cytotoxicity Assay Using LoVo Colon Cell Line: • 1. LoVo Colon cell lines were cultured in RPMI 1640 medium (Gibco/Invitrogen Life Sciences) supplemented with 10% fetal bovine serum (FBS, Gibco) and 50 μg/ml entamicin (Gibco). Cells were maintained at 37° C. under 7% CO2. • 2. Cells were seeded in 96-well microtiter plates (Corning/Costar) in a volume of 0.15 ml of growth medium (4000 cells/well). Plates were incubated at 37° C. overnight (18-24 hours). • 3. Serial dilutions of the test agent were added to each well. Dilutions were prepared in growth medium. One of two dose ranges was used: 5 pM to 20 μM or 170 pg/ml to 10 μg/ml. Cells were incubated with the test compounds for 4 days at 37° C. • 4. Surviving cells were processed using the SRB asay, as described above.
5. The drug concentration that inhibits cell proliferation by 50% relative to untreated controls (IC50) was determined from cytotoxicity curves using the LSW Toolbox graphing application.

The mark [2] stands for this setting: Homo sapiens, 120 h, 80S14 p21-deficient cells, 5 days incubation, SRB, read-out: IC50 for 80SI4.
The mark [3] stands for this setting: Homo sapiens, 96 h, LoVo colon cells, 4 days incubation, SRB.
[4] abbreviates: Homo sapiens, 80S14, 120 h, read-out: IC50 for 80SI4 (uM).
The mark [5] stands for this setting: Homo sapiens, 120 h, 80S14 (p21-deficient) cells, 5 days, SRB, class symbols, read-out: IC50 for 80S14.
Setting [6] is: 80S14 (p21-deficient) cells, 5 days, SRB, class symbols, read-out: IC50 for 80S14.

Where two headings read alike, the source gives them in different places.

Take `O=C(NCCc1ccccc1)Nc1cccc(-c2ccnc3c(C(=O)c4cccs4)cnn23)c1` [Example 2, N-(2-phenylethyl)-N′-{3-[3-(thien-2-ylcarbonyl)pyrazolo[1,5-a]pyrimidin-7-yl]phenyl}urea]: the IC50 in assay [1] (setting [2]) fell in the range of 1 to 10 µM; in the assay with LoVo Colon cell line (setting [3]) it was 0.1 to 1 µM. For `O=C(Nc1cccc(-c2ccnc3c(C(=O)c4cccs4)cnn23)c1)NC1CCCCC1` [Example 3, N-cyclohexyl-N′-{3-[3-(thien-2-ylcarbonyl)pyrazolo[1,5-a]pyrimidin-7-yl]phenyl}urea], in that order: less than 1 µM and less than 0.1 µM. Take `CCCCOC(=O)Nc1cccc(-c2ccnc3c(C(=O)c4cccs4)cnn23)c1` [Example 13, butyl 3-[3-(thien-2-ylcarbonyl)pyrazolo[1,5-a]pyrimidin-7-yl]phenylcarbamate]: the IC50 in assay [1] (setting [4]) is less than 1 µM; in the assay with LoVo Colon cell line (Homo sapiens, LoVo, 96 h) it was less than 0.1 µM. For `C=CCOC(=O)Nc1cccc(-c2ccnc3c(C(=O)c4cccs4)cnn23)c1` [Example 14, allyl 3-[3-(thien-2-ylcarbonyl)pyrazolo[1,5-a]pyrimidin-7-yl]phenylcarbamate], in that order: less than 1 µM and less than 0.1 µM. As for `CC(C)(C)COC(=O)Nc1cccc(-c2ccnc3c(C(=O)c4cccs4)cnn23)c1` [Example 17, neopentyl 3-[3-(thien-2-ylcarbonyl)pyrazolo[1,5-a]pyrimidin-7-yl]phenylcarbamate], the IC50 in assay [1] (setting [2]) was less than 1 µM; in the assay with LoVo Colon cell line (setting [3]), less than 0.1 µM. As for `O=C(Nc1cccc(-c2ccnc3c(C(=O)c4cccs4)cnn23)c1)OCCCl` [Example 22], the IC50 was less than 1 µM in assay [1] (80S14 p21-deficient cells, 5 days incubation, SRB, read-out: IC50 for 80SI4) and less than 0.1 µM with LoVo Colon cell line (LoVo colon cells, 4 days incubation, SRB).

With `CCOC(=O)Nc1cccc(-c2ccnc3c(C(=O)c4cccs4)cnn23)c1` [Example 25, ethyl 3-[3-(thien-2-ylcarbonyl)pyrazolo[1,5-a]pyrimidin-7-yl]phenylcarbamate], the IC50 is less than 1 µM in assay [1] (setting [4]) and less than 0.1 µM with LoVo Colon cell line (Homo sapiens, LoVo, 96 h). With `O=C(Nc1cccc(-c2ccnc3c(C(=O)c4cccs4)cnn23)c1)OCCCCCl` [Example 26, 4-chlorobutyl 3-[3-(thien-2-ylcarbonyl)pyrazolo[1,5-a]pyrimidin-7-yl]phenylcarbamate], the figures for the IC50 (in assay [1] (setting [2]); with LoVo Colon cell line (setting [3])) were less than 1 µM and less than 0.1 µM, respectively. As for `C=C(C)C(=O)Nc1cccc(-c2ccnc3c(C(=O)c4cccs4)cnn23)c1` [Example 44, 2-methyl-N-{3-[3-(thien-2-ylcarbonyl)pyrazolo[1,5-a]pyrimidin-7-yl]phenyl}acrylamide], in the assay on LoVo Colon cell line (setting [3]), the IC50 was less than 0.1 µM. On to `CN(C)C(=O)Nc1cccc(-c2ccnc3c(C(=O)c4cccs4)cnn23)c1` [Example 46, N,N-dimethyl-N′-{3-[3-(thien-2-ylcarbonyl)pyrazolo[1,5-a]pyrimidin-7-yl]phenyl}urea], for which the IC50 fell in the range of 1 to 10 µM in assay [1] (setting [2]) and 1 to 2 µM in the assay with LoVo Colon cell line (setting [3]). For `O=C(Nc1cccc(-c2ccnc3c(C(=O)c4cccs4)cnn23)c1)c1cccs1` [Example 51, N-{3-[3-(thien-2-ylcarbonyl)pyrazolo[1,5-a]pyrimidin-7-yl]phenyl}thiophene-2-carboxamide], in that order: less than 1 µM and less than 0.1 µM. For `CC12CCC(C(=O)Nc3cccc(-c4ccnc5c(C(=O)c6cccs6)cnn45)c3)(OC1=O)C2(C)C` (stereo not drawn) [Example 54, 4,7,7-trimethyl-3-oxo-N-{3-[3-(thien-2-ylcarbonyl)pyrazolo[1,5-a]pyrimidin-7-yl]phenyl}-2-oxabicyclo[2.2.1]heptane-1-carboxamide], in that order: less than 1 µM and less than 0.1 µM. As to `CC(C)(C)CC(=O)Nc1cccc(-c2ccnc3c(C(=O)c4cccs4)cnn23)c1` [Example 55, 3,3-dimethyl-N-{3-[3-(thien-2-ylcarbonyl)pyrazolo[1,5-a]pyrimidin-7-yl]phenyl}butanamide], the IC50 was less than 1 µM in assay [1] (setting [4]) and less than 0.1 µM in the assay on LoVo Colon cell line (Homo sapiens, LoVo, 96 h). In the same order, the values of `CC(C)CCC(=O)Nc1cccc(-c2ccnc3c(C(=O)c4cccs4)cnn23)c1` [Example 56, 4-methyl-N-{3-[3-(thien-2-ylcarbonyl)pyrazolo[1,5-a]pyrimidin-7-yl]phenyl}pentanamide] are less than 1 µM and less than 0.1 µM. Take `O=C(Nc1cccc(-c2ccnc3c(C(=O)c4cccs4)cnn23)c1)c1cnc[nH]1` [Example 415, N-{3-[3-(Thien-2-ylcarbonyl)pyrazolo[1,5-a]pyrimidin-7-yl]phenyl}-1H-imidazole-5-carboxamide]: the IC50 in assay [1] (setting [5]) is less than 1 µM.

Take `O=C(Nc1cccc(-c2ccnc3c(C(=O)c4cccs4)cnn23)c1)OCc1ccncc1` [Example 416, Pyridin-4-ylmethyl 3-[3-(thien-2-ylcarbonyl)pyrazolo[1,5-a]pyrimidin-7-yl]phenylcarbamate]: the IC50 in assay [1] (setting [5]) was less than 1 µM. On the same count and under the same terms, then `CCCC(C)CNc1cccc(-c2ccnc3c(C(=O)c4cccs4)cnn23)c1` (stereo not drawn) [Example 418, (7-{3-[(2-Methylpentyl)amino]phenyl}pyrazolo[1,5-a]pyrimidin-3-yl)(thien-2-yl)methanone], with 1 to 10 µM; and `CN(C)c1ccc(-c2ccnc3c(C(=O)c4cccs4)cnn23)cc1NC(=O)c1ccncc1` [Example 428, N-{2-(Dimethylamino)-5-[3-(thien-2-ylcarbonyl)pyrazolo[1,5-a]pyrimidin-7-yl]phenyl}isonicotinamide], with 1 to 10 µM. Regarding `O=C(c1cccs1)c1cnn2c(-c3cccc(-c4ccc(CN5CCOCC5)cc4)c3)ccnc12` [Example 459, {7-[4′-(Morpholin-4-ylmethyl)-1,1′-biphenyl-3-yl]pyrazolo[1,5-a]pyrimidin-3-yl}(thien-2-yl)methanone], in assay [1] (setting [5]), the IC50 is less than 1 µM. Still for that read-out and setting: with `CN1CCN(Cc2ccc(-c3cccc(-c4ccnc5c(C(=O)c6cccs6)cnn45)c3)cc2)CC1` [Example 460, (7-{4′-[(4-Methylpiperazin-1-yl)methyl]-1,1′-biphenyl-3-yl}pyrazolo[1,5-a]pyrimidin-3-yl)(thien-2-yl)methanone] the figure was less than 1 µM; with `CC(C)CC(=O)Nc1cccc(-c2ccnc3c(-c4cccc(CN(C)C)c4)cnn23)c1` [Example 497, N-[3-(3-{3-[(Dimethylamino)methyl]phenyl}pyrazolo[1,5-a]pyrimidin-7-yl)phenyl]-3-methylbutanamide], 10 to 50 µM. Still for that read-out and setting: with `Cc1cc(C)cc(-c2cnn3c(-c4cccc(-c5nnn(CCN6CCCC6)n5)c4)ccnc23)c1` [Example 498, 3-(3,5-Dimethylphenyl)-7-{3-[2-(2-pyrrolidin-1-ylethyl)-2H-tetrazol-5-yl]phenyl}pyrazolo[1,5-a]pyrimidine] the figure was 1 to 10 µM; with `Cc1cc(C)cc(-c2cnn3c(-c4cccc(-c5nnn(CCN6CCCCC6)n5)c4)ccnc23)c1` [Example 499, 3-(3,5-Dimethylphenyl)-7-{3-[2-(2-piperidin-1-ylethyl)-2H-tetrazol-5-yl]phenyl}pyrazolo[1,5-a]pyrimidine], 1 to 10 µM.

On to “N,N′-diethyl-3-[3-(2-thienylcarbonyl)-pyrazolo[1,5-a]pyrimidin-7-yl]-benzamide [Example 248]”, for which, in assay [1] (setting [6]), the IC50 was in the range of 10 to 50 µM. Same read-out and setting: with “N-{3-[3-(2-Thienylcarbonyl)pyrazolo[1,5-a]pyrimidin-7-yl]phenyl}-3-trifluoromethyl)benzamide [Example 281]” the figure was less than 1 µM; with “tert-Butyl 4-[({3-[3-[3-(thien-2-ylcarbonyl)pyrazolo[1,5-a]pryimidin-7-yl]phenyl}amino)carbonyl]piperidine-1-carboxylate [Example 405]”, 1 to 10 µM.

These data come from patent publication US20060063784A1, “Method of using substituted pyrazolo [1,5-a] pyrimidines” (priority 2004, published 2006).
